Drawing on patent US6239130A, “Phosphodiesterase 4-inhibiting diazepinoindolones” (Warner-Lambert Company, priority 1997, dated 2001), this text covers IC50 for 29 compounds.

Where a name gives a salt, the structure may show the parent alone. A value given as a limit tells only on which side of the number the result lay.

Usually IC50 stands for the concentration that inhibits the measured activity by half.

The test system of one assay is PDE4 enzyme of human origin. The assay can be described thus: PDE4-inhibiting activity on an enzyme preparation obtained from the U937 cell line. It is filed as biochemical.
Details: not given
Here is the method: In the case of the PDE4 enzymes, this value is compared with that of rolipram, a specific PDE4 inhibitor. […] Measurement of the enzyme activity of the different types of PDE, and especially of the PDE4 enzymes, is then carried out according to a method adapted from W. J. Thompson, ibidem.
In turn, `Cc1cc2c3c(c1)C(c1ccccc1)=NC(n1c(C)nc4cc(C(=O)O)ccc4c1=O)C(=O)N3CC2` (racemic) [Example 7, 2-methyl-3-(9-methyl-4-oxo-1-phenyl-3,4,6,7-tetrahydro-[1,4]diazepino[6,7,1-hi]indol-3-yl)-4-oxo-3,4-dihydroquinazoline-7-carboxylic acid] gave an IC50 of 52 nM.

The compound `Cc1cc2c3c(c1)C(c1ccccc1)=N[C@H](n1c(C)nc4cc(C(=O)O)ccc4c1=O)C(=O)N3CC2` [7D(R), (3R)-2-methyl-3-(9-methyl-4-oxo-1-phenyl-3,4,6,7-tetrahydro[1,4]diazepino[6,7,1-hi]indol-3-yl)-4-oxo-3,4-dihydroquinazoline-7-carboxylic acid] gave an IC50 of 982 nM.

Regarding `Cc1cc2c3c(c1)C(c1ccccc1)=N[C@@H](n1c(C)nc4cc(C(=O)O)ccc4c1=O)C(=O)N3CC2` [7E(S), (3S)-2-methyl-3-(9-methyl-4-oxo-1-phenyl-3,4,6,7-tetrahydro[1,4]diazepino[6,7,1-hi]indol-3-yl)-4-oxo-3,4-dihydroquinazoline-7-carboxylic acid], the IC50 is 35 nM.

For the compound `Cc1nc2ccccc2c(=O)n1[C@@H]1N=C(c2ccccc2)c2cccc3c2N(CC3)C1=O` [Example 1, (3S)-3-(2-methyl-4-oxo-4H-quinazolin-3-yl)-1-phenyl-6,7-dihydro-3H[1,4]diazepino[6,7,1-hi]indol-4-one], 448 nM corresponded to half-maximal inhibition (IC50).

The compound `Cc1cc2c3c(c1)C(c1ccccc1)=NC(n1c(C)nc4ccccc4c1=O)C(=O)N3CC2` (stereo not drawn) [Example 2, 9-methyl-3-(2-methyl-4-oxo-4H-quinazolin-3-yl)-1-phenyl-6,7-dihydro-3H-[1,4]diazepino [6,7,1-hi] indol-4-one] gave an IC50 of 146 nM.

Take `COc1cc2c3c(c1)C(c1ccccc1)=NC(n1c(C)nc4ccccc4c1=O)C(=O)N3CC2` (stereo not drawn) [Example 2A, 9-methoxy-3-(2-methyl-4-oxo-4H-quinazolin-3-yl)-1-phenyl-6,7-dihydro-3H-[1,4]diazepino [6,7,1-hi] indol-4-one]: the IC50 is 183 nM.

In the case of `COC(=O)c1ccc2c(=O)n(C3N=C(c4ccccc4)c4cc(OC)cc5c4N(CC5)C3=O)c(C)nc2c1` (stereo not drawn) [Example 2B, Methyl 2-methyl-3-(9-methoxy-4-oxo-1-phenyl-3,4,6,7-tetrahydro[1,4]diazepino[6,7,1-hi]indol-3-yl)-4-oxo-3,4-dihydroquinazoline-7-carboxylate], the half-inhibitory concentration (IC50) amounted to 67 nM.

In the case of `COc1cc2c3c(c1)C(c1ccccc1)=NC(n1c(C)nc4cc(C(=O)O)ccc4c1=O)C(=O)N3CC2` (stereo not drawn) [Example 2C, 2-methyl-3-(9-methoxy-4-oxo-1-phenyl-3,4,6,7-tetrahydro[1,4]diazepino[6,7,1-hi]indol-3-yl)-4-oxo-3,4-dihydroquinazoline-7-carboxylic acid], the IC50 came out at 108 nM.

`Cc1cc2c3c(c1)C(c1ccccc1)=N[C@@H](n1c(C)nc4cccc(C)c4c1=O)C(=O)N3CC2` [Example 3, (3S)-9-methyl-3-(2,5-dimethyl-4-oxo-4H-quinazolin-3-yl)-1-ph enyl-6,7-dihydro-3H-[1,4]-diazepino[6,7,1-hi]indol-4-one] returned an IC50 of 141 nM.

`Cc1cc2c3c(c1)C(c1ccccc1)=N[C@@H](n1c(C)nc4ccc(C)cc4c1=O)C(=O)N3CC2` [Example 4, (3S)-9-methyl-3-(2,6-dimethyl-4-oxo-4H-quinazolin-3-yl)-1-phenyl-6,7-dihydro-3H-[1,4]diazepino[6,7,1-hi]indol-4-one]: the IC50 came to 553 nM.

Consider `Cc1cc2c3c(c1)C(c1ccccc1)=N[C@@H](n1c(C)nc4c(C)cccc4c1=O)C(=O)N3CC2` [Example 5, (3S)-9-methyl-3-(2,8-dimethyl-4-oxo-4H-quinazolin-3-yl)-1-ph enyl-6,7-dihydro-3H-[1,4]diazepino[6,7,1-hi]indol-4-one], for which the IC50 came out at 832 nM.

`COc1cccc2nc(C)n(C3N=C(c4ccccc4)c4cc(C)cc5c4N(CC5)C3=O)c(=O)c12` (stereo not drawn) [Example 6, 3-(5-methoxy-2-methyl-4-oxo-4H-quinazolin-3-yl)-9-methyl-1-phenyl-6,7-dihydro-3H-[1,4]diazepino[6,7,1-hi]indol-4-one] came in with an IC50 of 3020 nM.

In the case of `COc1ccc2c(=O)n(C3N=C(c4ccccc4)c4cc(C)cc5c4N(CC5)C3=O)c(C)nc2c1` (stereo not drawn) [Example 6A, 3-(7-methoxy-2-methyl-4-oxo-4H-quinazolin-3-yl)-9-methyl-1-phenyl-6,7-dihydro-3H-[1,4]-diazepino[6,7,1-hi]indol-4-one], half-maximal inhibition (IC50) required 133 nM.

Consider `COc1ccc2nc(C)n(C3N=C(c4ccccc4)c4cc(C)cc5c4N(CC5)C3=O)c(=O)c2c1` (stereo not drawn) [Example 6B, 3-(6-methoxy-2-methyl-4-oxo-4H-quinazolin-3-yl)-9-methyl-1-phenyl-6,7-dihydro-3H-[1,4]-diazepino[6,7,1-hi]indol-4-one], for which the IC50 amounted to 1420 nM.

`Cc1cc2c3c(c1)C(c1ccccc1)=NC(n1c(C)nc4ccc(Br)cc4c1=O)C(=O)N3CC2` (stereo not drawn) [Example 6C, 3-(6-bromo-2-methyl-4-oxo-4H-quinazolin-3-yl)-9-methyl-1-phenyl-6,7-dihydro-3H-[1,4]diazepino-[6,7,1-hi]indol-4-one] had an IC50 of 838 nM.

With `Cc1cc2c3c(c1)C(c1ccccc1)=NC(n1c(C)nc4cccc(CO)c4c1=O)C(=O)N3CC2` (stereo not drawn) [Example 6D, 3-(5-hydroxymethyl-2-methyl-4-oxo-4H-quinazolin-3-yl)-9-methyl-1-phenyl-6,7-dibydro-3H-[1,4]-diazepino[6,7,1-hi]indol-4-one], the IC50 was 372 nM.

In the case of `Cc1cc2c3c(c1)C(c1ccccc1)=NC(n1c(C)nc4cccc(C(=O)OC(C)(C)C)c4c1=O)C(=O)N3CC2` (stereo not drawn) [Example 6E, tert-Butyl 2-methyl-3-(9-methyl-4-oxo-1-phenyl-3,4,6,7-tetrahydro-[1,4]diazepino[6,7,1-hi]indol-3-yl)-4-oxo-3,4-dihydroquinazoline-5-carboxylate], the concentration for half-maximal inhibition (IC50) was > 100000 nM.

Consider `Cc1cc2c3c(c1)C(c1ccccc1)=NC(n1c(C)nc4cccc(C(=O)O)c4c1=O)C(=O)N3CC2` (stereo not drawn) [Example 6F, 2-methyl-3-(9-methyl-4-oxo-1-phenyl-3,4,6,7-tetrahydro[1,4]diazepino[6,7,1-hi]indol-3-yl)-4-oxo-3,4-dihydroquinazoline-5-carboxylic acid], for which the IC50 is > 100000 nM.

For `COC(=O)c1ccc2c(=O)n(C3N=C(c4ccccc4)c4cc(C)cc5c4N(CC5)C3=O)c(C)nc2c1` (stereo not drawn) [Example 7A, Methyl 2-methyl-3-(9-methyl-4-oxo-1-phenyl-3,4,6,7-tetrahydro-[1,4]diazepino[6,7,1-hi]indol-3-yl)-4-oxo-3,4-dihydroquinazoline-7-carboxylate], the IC50 was determined as 157 nM.

As to `Cc1cc2c3c(c1)C(c1ccccc1)=NC(n1c(C)nc4cc(C(=O)O)ccc4c1=O)C(=O)N3CC2` [Example 7C, Salt of 2-methyl-3-(9-methyl-4-oxo-1-phenyl-3,4,6,7-tetrahydro[1,4]diazepino[6,7,1-hi]indol-3-yl)-4-oxo-3,4-dihydroquin azoline-7-carboxylic acid with D-glucamine], the midpoint of inhibition, the IC50, lay at 66 nM.

For the compound `Cc1cc2c3c(c1)C(c1ccccc1)=NC(n1c(C)nc4cc(C(N)=O)ccc4c1=O)C(=O)N3CC2` (stereo not drawn) [Example 8, 2-methyl-3-(9-methyl-4-oxo-1-phenyl-3,4,6,7-tetrahydro-[1,4]diazepino[6,7,1-hi]indol-3-yl)-4-oxo-3,4-dihydroquinazoline-7-carboxamide], the IC50 worked out at 50 nM.

Take `Cc1cc2c3c(c1)C(c1ccccc1)=NC(n1c(C)nc4cc(-c5nnn[nH]5)ccc4c1=O)C(=O)N3CC2` (stereo not drawn) [Example 8B]: 28 nM corresponded to half-maximal inhibition (IC50).

`CNC(=O)c1ccc2c(=O)n(C3N=C(c4ccccc4)c4cc(C)cc5c4N(CC5)C3=O)c(C)nc2c1` (stereo not drawn) [Example 9, 2-methyl-3-(9-methyl-4-oxo-1-phenyl-3,4,6,7-tetrahydro-[1,4]diazepino[6,7,1-hi]indol-3-yl)-4-oxo-3,4-dihydroquinazoline-7-(N-methylcarboxamide)] yielded an IC50 of 63 nM.

With `Cc1cc2c3c(c1)C(c1ccccc1)=NC(n1c(C)nc4cc(C(=O)N(C)C)ccc4c1=O)C(=O)N3CC2` (stereo not drawn) [Example 9A, 2-methyl-3-(9-methyl-4-oxo-1-phenyl-3,4,6,7-tetrahydro[1,4]diazepino[6,7,1-hi]indol-3-yl)-4-oxo-3,4dihydroquinazoline-7-N-dimethylearboxamide], the IC50 came to 122 nM.

Regarding `Cc1cc2c3c(c1)C(c1ccccc1)=NC(n1c(C)nc4cc(C(=O)NCCN5CCOCC5)ccc4c1=O)C(=O)N3CC2` (stereo not drawn) [Example 9B, 2-methyl-3-(9-methyl-4-oxo-1-phenyl-3,4,6,7-tetrahydro[1,4]diazepino[6,7,1-hi]indol-3-yl) 4-oxo-3,4-dihydroquinazoline-7-carboxylic acid (2-morpholin-4-yl-ethyl)amide], the midpoint of inhibition, the IC50, lay at 95 nM.

For the compound `Cc1cc2c3c(c1)C(c1ccccc1)=NC(n1c(C)nc4cc(C(=O)NCCCN5CCOCC5)ccc4c1=O)C(=O)N3CC2` (stereo not drawn) [Example 9C], the IC50 is 69 nM.

`Cc1cc2c3c(c1)C(c1ccccc1)=NC(n1c(C)nc4cc(C(=O)NCCN)ccc4c1=O)C(=O)N3CC2` (stereo not drawn) [Example 9D, 2-methyl-3-(9-methyl-4-oxo-1-phenyl-3,4,6,7-tetrahydro[1,4]diazepino[6,7,1-hi]indol-3-yl)-4-oxo-3,4-dihydroquinazoline-7-(2-amino)ethylcarboxamide]: the IC50 amounted to 119 nM.

`Cc1cc2c3c(c1)C(c1ccccc1)=NC(n1c(C)nc4cc(C(=O)N5CCN(CCO)CC5)ccc4c1=O)C(=O)N3CC2` (stereo not drawn) [Example 9F, 3-{7-[4-(2-hydroxyethyl)piperazine-1-carbonyl]-2-methyl-4-oxo-4H-quinazolin-3-yl}-9-methyl-1-phenyl-6,7-dihydro-3H-[1,4]diazepino[6,7,1-hi]indol-4-one] had an IC50 of 192 nM.

In turn, `Cc1cc2c3c(c1)C(c1ccccc1)=NC(n1c(C)nc4cc(C(=O)N5CCN(CCO)CC5)ccc4c1=O)C(=O)N3CC2` (stereo not drawn) [Example 9G] came in with an IC50 of 137 nM.

The same assay, now with this note: listed as 7B.
Regarding `Cc1cc2c3c(c1)C(c1ccccc1)=NC(n1c(C)nc4cc(C(=O)O)ccc4c1=O)C(=O)N3CC2` (racemic) [Example 7, 2-methyl-3-(9-methyl-4-oxo-1-phenyl-3,4,6,7-tetrahydro-[1,4]diazepino[6,7,1-hi]indol-3-yl)-4-oxo-3,4-dihydroquinazoline-7-carboxylic acid], half-maximal inhibition (IC50) required 57 nM.
